Results as given in US20230113501A1, “TREATMENT OF LEUKEMIAS AND LYMPHOMAS WITH COMBINATIONS OF BCL-2 INHIBITORS AND PLK1 INHIBITORS” (Cardiff Oncology, Inc., priority 2020, published 2023).

Key:
OCI-AML3 xenograft [1] = assay: Efficacy of onvansertib alone and in combination with venetoclax in an OCI-AML3 xenograft model (tumor volume, survival); type: in vivo, CB17 NOD.SCID mice; conditions: onvansertib 40 mg/kg
[2] = patients with advanced/metastatic solid tumors, cited from earlier work
[3] = Animal health: body weight and tolerability in the OCI-AML3 xenograft study; type: in vivo, CB17 NOD.SCID mice; conditions: the values are: relative body weight (ratio to day 0)
Excerpt: (§1) CB17 NOD.SCID mice (female, 5 weeks old) were procured through Envigo (Strain NOD.CB17-Prkdc*scidNCrHsd). Mice were fed Teklad irradiated (sterilized) mouse diet and bedded with Teklad irradiated (sterilized) corncob bedding from Envigo (Indianapolis, Ind.). Mice were housed in Optimice carousel sterile quarters with filtered air supply in disposable cages from Animal Care Systems, Inc. (Centennial, Colo.).
(§2) Tumor volumes were monitored, and, when mean tumor volume reached ˜200 mm^3, mice were stratified and placed into (4) treatment groups of (10) mice as outlined in Table 1.
(§3) Treatments were administered by oral gavage (polypropylene needles, Instech, Cat. FTP-20-38) daily for venetoclax for 14 days, and 5 days on 2 days off for two cycles for Onvansertib. For clarity, the combination was dosed so that venetoclax was given daily and the onvansertib was given 5 days on, 2 days off, just like the single agent groups.
All dosing was performed without any unexpected problems noted. […] Therefore, the single agents and combination were tolerated at the tested dose and schedule.
The group average change in weight relative to day 0 of the study is shown in […]

AML cell lines = conditions: cited from earlier work
PLK1 = PLK1 (Homo sapiens, UniProt P53350); conditions: including other PLK members; cited from earlier work
OCI-AML3 xenograft [4] = assay: Efficacy of onvansertib alone and in combination with venetoclax in an OCI-AML3 xenograft model (tumor volume, survival); type: in vivo, CB17 NOD.SCID mice; conditions: for Average tumor volume: oral gavage; for Mean Diff. (vehicle vs. treatment), Dunnett's multiple comparisons test: tumor volumes from day 14
Experimental: In this example, the efficacy of onvansertib alone and in combination with venetoclax was evaluated in an OCI-AML3 xenograft model.
The OCI-AML3 cell line easily engrafts in NOD/SCID mice, maintaining the typical features of NPMc+ AML, including NPM cytoplasmic expression.
OCI-AML3 cells (DSMZ cat no: ACC 582) were cultured in RPMI supplemented with 10% FBS and 1%P/S, in a humidified incubator at 37° C. and 5% CO2. Normocin (Invivogen) was also added according to the manufacturer's recommendation to prevent mycoplasma growth.
as §1
On the day of implantation (Oct. 8, 2019), OCI-AML3 cells were collected and spun at 400 ×g. Media was aspirated and cells were resuspended in 50:50 *Cultrex:PBS (w/o calcium and magnesium) at a concentration of 1×10^8 cells/mL. A volume of 100 μL was injected into the right hind flank of each animal (a total of 1×10^7 cells). Filled syringes and cells were kept on ice to prevent gelling of matrigel. *Cultrex: BME, type 3, 17.24 mg/mL R&D systems Cat. #3632-005-02, Lot #40498J17
as §2, §3
Individual tumor volumes were measured by electronic caliper 2× a week.
Using tumor volumes from day 14 (the last day with all mice on study), an ordinary ANOVA test with a Dunnett's multiple comparison was performed using Prism (graphpad v. 8.3.0) (Table 4).
A survival graph was plotted (FIG. 2) and survival analysis (death=takedown for tumor burden limit) was also performed using Prism software (individual comparisons of survival curves using the Mantel-Cox test and Gehan-Breslow-Wilcoxon test shown in Table 5).

[5] = Day 0, venetoclax 75 mg/kg, onvansertib 30 mg/kg
[6] = Day 4, venetoclax 75 mg/kg, onvansertib 30 mg/kg
[7] = Day 7, venetoclax 75 mg/kg, onvansertib 30 mg/kg
[8] = Day 11, venetoclax 75 mg/kg, onvansertib 30 mg/kg
[9] = Day 14, venetoclax 75 mg/kg, onvansertib 30 mg/kg
[10] = Day 18, venetoclax 75 mg/kg, onvansertib 30 mg/kg

Sequence of PLK1 (P53350 whole entry): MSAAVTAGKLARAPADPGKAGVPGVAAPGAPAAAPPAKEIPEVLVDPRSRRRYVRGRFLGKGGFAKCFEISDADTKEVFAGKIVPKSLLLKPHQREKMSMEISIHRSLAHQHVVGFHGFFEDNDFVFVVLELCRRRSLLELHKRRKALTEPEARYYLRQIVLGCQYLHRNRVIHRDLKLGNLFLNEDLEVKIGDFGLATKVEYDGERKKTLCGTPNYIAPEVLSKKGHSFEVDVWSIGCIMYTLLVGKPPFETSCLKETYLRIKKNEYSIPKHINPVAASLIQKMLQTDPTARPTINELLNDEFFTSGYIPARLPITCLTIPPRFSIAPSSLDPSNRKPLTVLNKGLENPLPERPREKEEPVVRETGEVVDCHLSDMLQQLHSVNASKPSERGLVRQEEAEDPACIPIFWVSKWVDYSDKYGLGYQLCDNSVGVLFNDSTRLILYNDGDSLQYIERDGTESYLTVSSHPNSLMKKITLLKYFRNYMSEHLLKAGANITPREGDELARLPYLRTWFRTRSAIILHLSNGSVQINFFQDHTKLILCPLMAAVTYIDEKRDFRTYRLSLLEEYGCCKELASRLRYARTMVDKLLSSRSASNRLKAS

SMILES | Relative body weight (ratio to day 0) ([3]; Day 0) | Relative body weight (ratio to day 0) ([3]; Day 4) | Relative body weight (ratio to day 0) ([3]; Day 7) | Relative body weight (ratio to day 0) ([3]; Day 11) | Relative body weight (ratio to day 0) ([3]; Day 14) | Relative body weight (ratio to day 0) ([3]; Day 18) | Average tumor volume (OCI-AML3 xenograft [4]; [5]) | Average tumor volume (OCI-AML3 xenograft [4]; [6]) | Average tumor volume (OCI-AML3 xenograft [4]; [7]) | Average tumor volume (OCI-AML3 xenograft [4]; [8]) | Average tumor volume (OCI-AML3 xenograft [4]; [9]) | Average tumor volume (OCI-AML3 xenograft [4]; [10]) | Mean Diff. (vehicle vs. treatment), Dunnett's multiple comparisons test (OCI-AML3 xenograft [4]) | further results
CN1CCN(c2ccc(OC(F)(F)F)c(Nc3ncc4c(n3)-c3c(c(C(N)=O)nn3CCO)CC4)c2)CC1 [Onvansertib, 1-(2-hydroxyethyl)-8-{[5-(4-methylpiperazin-1l-yl)-2-(trifluoromethoxy)phenyl]amino}-4,5-dihydro-1H-pyrazolo[4,3-h] quinazoline-3-carboxamide] | 1 | 1.04 | 1.07 | 1.1 | 1.13 | 1.18 | 208.48 mm^3 | 367.54 mm^3 | 708.38 mm^3 | 980.01 mm^3 | 1461.86 mm^3 | 2269.05 mm^3 | 960 | Single agent activity in the previous study (OCI-AML3 xenograft [1]): single agent activity; Half-life [2]: 20 and 30 hours; Primary dose-limiting toxicities ([2]; reversible, recovery within 3 weeks): neutropenia and thrombocytopenia; Concentrations that inhibited cell proliferation (AML cell lines): nanomolar concentrations; Specificity for PLK1 among a panel of 296 kinases (PLK1): high specificity; Significant? Dunnett's multiple comparisons test (OCI-AML3 xenograft [4]; tumor volumes from day 14, vehicle vs. treatment): Yes; Survival, Gehan-Breslow-Wilcoxon test, Are the survival curves sig different? (OCI-AML3 xenograft [4]; vehicle vs. treatment): Yes; Survival, Log-rank (Mantel-Cox) test, Are the survival curves sig different? (OCI-AML3 xenograft [4]; vehicle vs. treatment): No; Survival, Log-rank (Mantel-Cox) test, Chi square (OCI-AML3 xenograft [4]; vehicle vs. treatment, death = takedown for tumor burden limit): 3.577; Survival, Gehan-Breslow-Wilcoxon test, Chi square (OCI-AML3 xenograft [4]; vehicle vs. treatment, higher weighing for early events): 5.221; Activity in the OCI-AML3 xenograft (conclusion) (OCI-AML3 xenograft [4]; venetoclax 75 mg/kg, onvansertib 30 mg/kg, and the combination): Activity was noted; Tumor growth inhibition as single agent (OCI-AML3 xenograft [4]; venetoclax 75 mg/kg, onvansertib 30 mg/kg): some tumor growth inhibition
CC1(C)CCC(CN2CCN(c3ccc(C(=O)NS(=O)(=O)c4ccc(NCC5CCOCC5)c([N+](=O)[O-])c4)c(Oc4cnc5[nH]ccc5c4)c3)CC2)=C(c2ccc(Cl)cc2)C1 [Venetoclax] | 1 | 1.03 | 1.07 | 1.09 | 1.12 | 1.15 | 203.78 mm^3 | 441.01 mm^3 | 861.05 mm^3 | 1362.15 mm^3 | 2110.23 mm^3 | 2856.33 mm^3 | 311.6 | –
